Measurements taken from US20220401390A1, “TREATMENTS OF DIABETIC MACULAR EDEMA AND IMPAIRED VISUAL ACUITY” (KALVISTA PHARMACEUTICALS LIMITED, priority 2019, published 2022).

Tested on: subjects with ciDME who have had prior anti-VEGF treatment
Assay: Study 2: sham-controlled monthly intravitreal injections, BCVA (ETDRS) efficacy
Type: in vivo, human
Set-up: BCVA (letters): any loss from baseline, Diff. v. sham / BCVA: ≥5 letter loss from baseline, Diff. v. sham / BCVA: ≥10 letter loss from baseline, Diff. v. sham / BCVA: ≥15 letter loss from baseline, Diff. v. sham: unit not given here
Details: for BCVA: ≥10 letter loss from baseline, Diff. v. sham / BCVA: ≥15 letter loss from baseline, Diff. v. sham / BCVA (letters): any loss from baseline, Diff. v. sham / BCVA: ≥5 letter loss from baseline, Diff. v. sham: week 16
From the text: To investigate monthly dosing of intravitreal (IVT) injection of the compound of Formula A in subjects with ciDME who have had prior anti-VEGF treatment. In particular, to evaluate any effect on the efficacy in the treatment, prevention, or prevention of worsening of ciDME in subjects who have had prior anti-VEGF treatment.
This study was a randomized, sham-controlled, double-masked, 3-arm study into efficacy, safety and tolerability of monthly intravitreal injections of the compound of Formula A as a monotherapy in adult subjects with ciDME. The subjects had all had prior anti-VEGF treatment.
129 adult subjects were chosen using the following inclusion criteria: • 1. Male or female adult subjects 18 years of age and older. • 2. Confirmed diagnosis of Type I or Type II diabetes mellitus (DM). Any of the following were sufficient: • a. Current regular use of insulin for the treatment of diabetes • b. Current regular use of oral anti-hyperglycemia agents for the treatment of diabetes • c. Documented diabetes by American Diabetes Association and/or World Health Organization (VVHO) criteria. • 3. Best Corrected Visual Acuity (BCVA), using Standard Early Treatment Diabetic Retinopathy Study (ETDRS) chart, of ≥19 letters (˜20/400) and ≤73 letters (˜20/40) in the study eye and ≥34 letters (˜20/200 or better) in the fellow eye at Screening and Day 1. • 4. Presence of ciDME in the study eye defined as Heidelberg Spectralis Optical Coherence Tomography (SD-OCT) CST ≥305 μm in women and ≥320 μm in men in the study eye (as assessed at Screening by the Investigator and Central Image Reading Center (CIRC) and on Day 1 by the Investigator). • 5. Subjects' first anti-VEGF injection in the study eye occurred 36 months prior to Day 1. • 6. Subjects received at least 3 anti-VEGF injections in the study eye within a 6-month period within the 36 months prior to Day 1. • 7. Subject's' last anti-VEGF injection in the study eye was 8 weeks prior to Day 1. • 8. Subjects, who in the view of the Investigator, were able to defer treatment in the study eye for at least 6 months following Day 1. • 9. […] Provide signed informed consent and were willing and capable of complying with clinic visits and study procedures.
The 129 eligible subjects were randomized approximately 1:1:1 into three arms: • 1. Arm 1, N=44: • Received injections of 3 μg/eye (100 μL injection volume at a concentration of 30 μg/mL) of the compound of formula A; • 2. Arm 2, N=41: • Received injections of 6 μg/eye (100 μL injection volume at a concentration of 60 μg/mL) of the compound of formula A; and • 3. Arm 3, N=44: • Received a sham procedure; during a 12-week, double-masked treatment period (a total of 4 doses given at approximately monthly intervals).
Subjects visited the study clinic on Day 1 and Weeks 4, 8, and 12 during the Treatment Phase for study drug administration or sham procedure, safety, and ophthalmic assessments.
The ophthalmic assessments were carried out in approximately the following order at the subjects' visits to the study clinic on Day 1, and Weeks 4, 8 and 12: • BCVA (must be performed prior to all other ophthalmic procedures) • Slit lamp biomicroscopy • Pre-Injection IOP/IOP at visits with no study drug administration (must be done prior to dilation) • Dilated indirect ophthalmoscopy • Fundus photography • SD-OCT • Intravitreal injection • Post-Injection IOP
All subjects visited the clinic at Weeks 16, 20, and 24 after the last study drug administration or sham procedure for safety and ophthalmic assessments. The visit window for Weeks 16, 20, and 24 is ±7 days.
The assessment measured change from baseline in BCVA letter count in the study eye at Week 16. Change from baseline in BCVA letter count is calculated as Week 16 BCVA letter count minus Day 1 BCVA letter count such that a negative difference indicates a worsening in vision. […]

In the case of `CCOc1ccc(C[C@@H](NC(=O)c2ccccc2)C(=O)N[C@@H](Cc2ccccc2)C(=O)NCc2ccc(CN)cc2)cc1` [compound of Formula A, N—[(R)-1-[(S)-1-(4-Aminomethyl-benzylcarbamoyl)-2-phenyl-ethylcarbamoyl]-2-(4-ethoxy-phenyl)-ethyl]-benzamide], the “BCVA improvement (letters), change versus sham, mean” value (3 μg, 4 weeks, positive value is improvement) is reported as 0.6 letters, the “BCVA improvement (letters), change versus sham, mean” value (3 μg, 8 weeks, positive value is improvement) is reported as 1.2 letters and the “BCVA improvement (letters), change versus sham, mean” value (3 μg, 12 weeks, positive value is improvement) is reported as 3.8 letters. The “BCVA improvement (letters), change versus sham, mean” value (3 μg, 16 weeks, positive value is improvement) was 1.5 letters, the “BCVA improvement (letters), change versus sham, mean” value (3 μg, 20 weeks, positive value is improvement) was −1.2 letters and the “BCVA improvement (letters), change versus sham, mean” value (3 μg, 24 weeks, positive value is improvement) was −0.7 letters. The “BCVA (letters): any loss from baseline, (%)” value (3 μg, week 16, n = 44) was “(50.0) %”, the “BCVA: ≥5 letter loss from baseline, (%)” value (3 μg, week 16, n = 44) was “(25.0) %” and the “BCVA: ≥10 letter loss from baseline, (%)” value (3 μg, week 16, n = 44) was “(9.1) %”. For the same compound, the “BCVA: ≥15 letter loss from baseline, (%)” value (3 μg, week 16, n = 44) was “(4.5) %”, the “BCVA: ≥10 letter loss from baseline, Diff. v. sham” value (3 μg, p-value 0.228) was −11.4 and the “BCVA: ≥15 letter loss from baseline, Diff. v. sham” value (3 μg, p-value 0.4336) was −6.8. For the same compound, the “BCVA (letters): any loss from baseline, Diff. v. sham” value (3 μg, p-value 0.6695) was −4.5, the “BCVA: ≥5 letter loss from baseline, Diff. v. sham” value (3 μg, p-value 0.8083) was −2.3 and the “Improvement in BCVA (letters) score compared to sham after the treatment period (in words)” value (6 μg doses, through to the 24 week time period) was “maintained”. For the same compound, the “BCVA improvement (letters), change versus sham, mean” value (6 μg, all subjects, 4 weeks, positive value is improvement) was 0.9 letters, the “BCVA improvement (letters), change versus sham, mean” value (6 μg, all subjects, 8 weeks, positive value is improvement) was 1.1 letters and the “BCVA improvement (letters), change versus sham, mean” value (6 μg, all subjects, 12 weeks, positive value is improvement) was 2.9 letters. The “BCVA improvement (letters), change versus sham, mean” value (6 μg, all subjects, 16 weeks, positive value is improvement) was 2.6 letters, the “BCVA improvement (letters), change versus sham, mean” value (6 μg, all subjects, 20 weeks, positive value is improvement) was 2.0 letters and the “BCVA improvement (letters), change versus sham, mean” value (6 μg, all subjects, 24 weeks, positive value is improvement) was 2.1 letters. For the same compound, the “BCVA improvement (letters), change versus sham, mean” value (6 μg, early stage subjects (baseline BCVA >55 letters), 4 weeks) was 2.3 letters, the “BCVA improvement (letters), change versus sham, mean” value (6 μg, early stage subjects (baseline BCVA >55 letters), 8 weeks) was 1.8 letters and the “BCVA improvement (letters), change versus sham, mean” value (6 μg, early stage subjects (baseline BCVA >55 letters), 12 weeks) was 4.7 letters. For the same compound, the “BCVA improvement (letters), change versus sham, mean” value (6 μg, early stage subjects (baseline BCVA >55 letters), 16 weeks) was 4.9 letters, the “BCVA improvement (letters), change versus sham, mean” value (6 μg, early stage subjects (baseline BCVA >55 letters), 20 weeks) was 3.5 letters and the “BCVA improvement (letters), change versus sham, mean” value (6 μg, early stage subjects (baseline BCVA >55 letters), 24 weeks) was 2.9 letters. The “BCVA (letters): any loss from baseline, (%)” value (6 μg, week 16, n = 41) was “(32.5) %”, the “BCVA: ≥5 letter loss from baseline, (%)” value (6 μg, week 16, n = 41) was “(20.0) %” and the “BCVA: ≥10 letter loss from baseline, (%)” value (6 μg, week 16, n = 41) was “(5.0) %”. The “BCVA: ≥15 letter loss from baseline, (%)” value (6 μg, week 16, n = 41) was “(0) %”, the “BCVA (letters): any loss from baseline, Diff. v. sham” value (6 μg, p-value 0.0421) was −22.0 and the “BCVA: ≥10 letter loss from baseline, Diff. v. sham” value (6 μg, p-value 0.0516) was −15.5. The “BCVA: ≥15 letter loss from baseline, Diff. v. sham” value (6 μg, p-value 0.0565) was −11.4, the “BCVA: ≥5 letter loss from baseline, Diff. v. sham” value (6 μg, p-value 0.4344) was −7.3 and the “Average improvement in BCVA score of early stage patients versus overall population (in words)” value (baseline BCVA greater than 55 letters, every measurement taken) was “consistently better average improvement in BCVA score than the overall average population score”. For the same compound, the “Progression of DME or impaired visual acuity (in words)” value (subjects that had previously had anti-VEGF treatment) was “slowing of the progression”.
